In ChEMBL document CHEMBL3576807, “Crystal Structures of mPGES-1 Inhibitor Complexes Form a Basis for the Rational Design of Potent Analgesic and Anti-Inflammatory Therapeutics” (J Med Chem, 2015) one finds IC50 and deltaT data, which are given here for two molecules.

The target in assay [1] is T1, Prostaglandin E synthase (Homo sapiens, UniProt O14684).
T1 sequence (O14684 whole entry): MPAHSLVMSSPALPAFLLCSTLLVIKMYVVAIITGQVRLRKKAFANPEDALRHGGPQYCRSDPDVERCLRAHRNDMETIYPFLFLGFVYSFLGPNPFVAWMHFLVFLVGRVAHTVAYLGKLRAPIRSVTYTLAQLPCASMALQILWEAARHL
In words: Inhibition of recombinant human mPGES-1 expressed in human 293E cell microsomes using PGH2 as substrate assessed as PGE2 production after 2.5 mins by LC/MS analysis.

For assay [2], the target named is T1, Prostaglandin E synthase. The assay is described as follows: Inhibition of purified mPGES-1 (1 to 152) (unknown origin) extracted from detergent-solubilized baculovirus-infected insect Sf9 cell membranes using PGH2 as substrate assessed as PGE2 production after 2.5 mins by LC/MS analysis.
In assay [3] the target is T2, Prostaglandin E synthase (Homo sapiens) (UniProt O14684).
T2 sequence (whole entry): T1 sequence (O14684 whole entry)
The assay is described as follows: Binding affinity to mPGES-1 (unknown origin) assessed as increase in protein aggregation temperature at 0.1 mM by differential static light scattering method.

As a reminder, the IC50 is the point on the concentration scale where inhibition reaches its midpoint. Take `Fc1cccc(Cl)c1-c1nc(-c2ccc(C#Cc3ccc(C(F)(F)F)cc3)nc2)c(Br)[nH]1`: the half-maximal inhibitory concentration (IC50) at Prostaglandin E synthase [1] stood at 0.007 µM; at Prostaglandin E synthase [2] it was 3.94 µM. Besides, the deltaT in assay [3] worked out at 7.8 °C.
Taken in the same sequence, the figures for `CC(C)Oc1ccc(-n2c(C(=O)O)cc3cc(-c4ccc(C(C)(C)C)cc4)ccc32)cc1` were 0.216 µM, 2.58 µM and 7.3 °C.
